In BindingDB's records for patent US12384786 (Minghui Pharmaceutical (Shanghai), 2025):

What was measured:
[1] = target: Tyrosine-protein kinase BTK [C481S] (Homo sapiens, UniProt Q06187, C481S); assay: Biochemical Evaluation
[2] = target: Tyrosine-protein kinase BTK (Homo sapiens, UniProt Q06187); assay: Biochemical Evaluation
Sequence of Tyrosine-protein kinase BTK (Q06187 whole entry): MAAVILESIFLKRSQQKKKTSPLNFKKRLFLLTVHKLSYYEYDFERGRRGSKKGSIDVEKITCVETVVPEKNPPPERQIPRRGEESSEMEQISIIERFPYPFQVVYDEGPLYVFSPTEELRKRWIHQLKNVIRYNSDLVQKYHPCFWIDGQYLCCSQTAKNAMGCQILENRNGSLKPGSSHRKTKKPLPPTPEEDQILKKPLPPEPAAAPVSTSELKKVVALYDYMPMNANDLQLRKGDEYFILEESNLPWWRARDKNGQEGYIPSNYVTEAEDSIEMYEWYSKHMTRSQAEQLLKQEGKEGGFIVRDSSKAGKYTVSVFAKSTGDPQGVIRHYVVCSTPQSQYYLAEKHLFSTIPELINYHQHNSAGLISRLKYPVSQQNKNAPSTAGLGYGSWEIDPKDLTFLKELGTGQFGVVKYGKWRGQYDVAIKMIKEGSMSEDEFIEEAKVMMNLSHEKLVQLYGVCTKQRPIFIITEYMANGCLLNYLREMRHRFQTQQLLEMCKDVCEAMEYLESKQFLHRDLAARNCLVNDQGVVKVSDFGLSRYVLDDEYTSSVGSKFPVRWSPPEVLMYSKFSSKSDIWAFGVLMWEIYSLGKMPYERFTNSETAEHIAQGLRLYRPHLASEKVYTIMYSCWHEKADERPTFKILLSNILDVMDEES

Sequence of Tyrosine-protein kinase BTK [C481S] (Q06187 2-659 C481S limits assumed): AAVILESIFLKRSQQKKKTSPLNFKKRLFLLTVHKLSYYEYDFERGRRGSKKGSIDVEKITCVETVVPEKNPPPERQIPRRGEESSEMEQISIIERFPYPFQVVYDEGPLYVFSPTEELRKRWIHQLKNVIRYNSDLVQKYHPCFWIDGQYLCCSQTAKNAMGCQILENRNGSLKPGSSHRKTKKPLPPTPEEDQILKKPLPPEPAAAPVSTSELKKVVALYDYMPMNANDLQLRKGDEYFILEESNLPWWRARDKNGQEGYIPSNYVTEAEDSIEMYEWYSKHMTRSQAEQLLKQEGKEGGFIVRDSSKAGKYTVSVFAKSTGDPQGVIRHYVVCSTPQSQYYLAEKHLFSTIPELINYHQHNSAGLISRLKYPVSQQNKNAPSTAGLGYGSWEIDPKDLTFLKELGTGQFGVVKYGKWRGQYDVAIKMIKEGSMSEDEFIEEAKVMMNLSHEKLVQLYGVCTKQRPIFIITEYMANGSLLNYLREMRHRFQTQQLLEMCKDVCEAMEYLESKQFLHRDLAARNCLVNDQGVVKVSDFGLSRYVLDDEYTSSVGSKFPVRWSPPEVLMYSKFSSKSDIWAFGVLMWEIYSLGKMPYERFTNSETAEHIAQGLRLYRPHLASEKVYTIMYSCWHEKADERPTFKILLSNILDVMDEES

- IC50 [1]: 0.7 nM
- IC50 [2]: 2.5 nM
Compound: Nc1ncnc2c1c(-c1ccc(Oc3ccccc3)cc1)nn2[C@H]1CC[C@@H](O)CC1 [US12384786, Example 8A]
